In US12006294B2, “Therapeutic compounds” (REGENTS OF THE UNIVERSITY OF MINNESOTA, priority 2017, dated 2024):
Structures can show the parent of a compound that is named as a salt. Where two headings read alike, the source gives them in different places.

Test system: Hela Cells
Test: Cellular ER stress model (tunicamycin, WST-8 cell viability)
Details: for viability at 2.5 µM: Homo sapiens, HeLa, 48 h; for % Cell Survival Cmpd(2.5 μM) + Tuni: Hela cells, compound 2.5 μM + tunicamycin, WST-8 viability 48 hours after tunicamycin treatment
[1] = read-out: % Cell Survival Cmpd(2.5 μM) + Tuni, Hela cells, compound 2.5 μM + tunicamycin, WST-8 viability 48 hours after tunicamycin treatment
[2] = read-out: Compounds ERS (vs Tn), ERS activity vs Tuni = % cell survival (compound)/% cell survival (tunicamycin), compound 2.5 μM

Row | SMILES | viability at 2.5 µM [1] [%] | viability at 2.5 µM [2] [%] | also measured
1 | N=C1NCCCN1/N=C/c1c(Cl)cccc1Cl [JM3-255-2, (E)-1-((2,6-dichlorobenzylidene)amino)tetrahydropyrimidin-2(1H)-imine hydrobromide] | 24.5 | 104 | –
2 | NC(=O)N/N=C/c1ccccc1Br [JM3-219-4, (E)-2-(2-bromobenzylidene)hydrazine-1-carboxamide hydrochloride] | 20 | 104 | –
3 | Clc1ccc(Cl)c(/C=N/NC2=NCCN2)c1Cl [JM3-151-2, (E)-2-(2-(2,3,6-trichlorobenzylidene)hydrazinyl)-4,5-dihydro-1H-imidazole hydrochloride] | 24.2 | 104 | –
4 | Cc1cccc(C)c1NC1=NCCN1 [JM2-59-2, N-(2,6-dimethylphenyl)-4,5-dihydro-1H-imidazol-2-amine] | – | – | viability at 2.5 µM (read-out: % Cell Survival Cmpd(2.5 μM) + Tuni): 46.2%; viability at 2.5 µM (read-out: Compounds ERS (vs Tn)): 67%
5 | N=C(N/N=C/c1c(Cl)cccc1Cl)Nc1ccccc1 [JM2-175-2, (E)-2-(2,6-dichlorobenzylidene)-N-phenylhydrazine-1-carboximidamide hydroiodide] | 34.3 | 108 | –
6 | CC(Oc1c(Cl)cccc1Cl)C1=NCCN1 (stereo not shown) [Lofexidine Hcl] | 35.4 | 107 | –
7 | NC(=O)N/N=C/c1ccccc1Cl [JM3-223-2, (E)-2-(2-chlorobenzylidene)hydrazine-1-carboxamide hydrochloride] | 28 | 118 | –
8 | Cc1cc(=O)nc(N/N=C/c2c(F)cccc2Cl)[nH]1 [JM2-203-2, (E)-2-(2-(2-chloro-6-fluorobenzylidene)hydrazinyl)-6-methylpyrimidin-4(1H)-one] | 19.7 | 103 | –
9 | COc1cc(Cl)c(/C=N/NC(=N)N)c(Cl)c1 [JM2-63-2, (E)-2-(2,6-dichloro-4-methoxybenzylidene)hydrazine-1-carboximidamide] | 44.6 | 65 | –
10 | N=C(N)NCC(O)c1c(Cl)cccc1Cl (stereo not shown) [JM3-27-2, 1-(2-(2,6-dichlorophenyl)-2-hydroxyethyl)guanidine] | 28.6 | 109 | –
11 | Fc1ccccc1/C=N/NC1=NCCN1 [JM2-115-2, (E)-2-(2-(2-fluorobenzylidene)hydrazinyl)-4,5-dihydro-1H-imidazole hydrochloride] | 35.6 | 112 | –
12 | N=C(N)N/N=C/c1cc(Cl)ccc1Cl [JM3-11-2, (E)-2-(2,5-dichlorobenzylidene)hydrazine-1-carboximidamide acetate] | 40.2 | 153 | –
13 | Cc1cccc(C)c1/C=N/NC1=NCCN1 [JM2-85-2, (E)-2-(2-(2,6-dimethylbenzylidene)hydrazinyl)-4,5-dihydro-1H-imidazole hydrochloride] | 62.3 | 145 | –
14 | N=C(N)N/N=C/c1ccc(-c2ccccc2)cc1Cl [JM3-63-2, (E)-2-((3-chloro-[1,1′-biphenyl]-4-yl)methylene)hydrazine-1-carboximidamide acetate] | 15.9 | 60 | –
15 | Cc1cc(=O)nc(N/N=C/c2ccccc2Cl)[nH]1 [JM3-215-3, (E)-2-(2-(2-chlorobenzylidene)hydrazinyl)-6-methylpyrimidin-4(1H)-one] | 21 | 110 | –
16 | O=C(/C=C/c1ccccc1)NC(NC(=S)Nc1ccc(Cl)cc1)C(Cl)(Cl)Cl (stereo not shown) [Sal003] | – | – | Compounds ERS (vs Tn) (ERS activity vs Tuni = % cell survival (compound)/% cell survival (tunicamycin), compound 2.5 μM): 1.03; % Cell Survival Cmpd(2.5 μM) + Tuni: 33.17%
17 | N=C(N)N/N=C/c1c(C(F)(F)F)cccc1C(F)(F)F [JM3-141-2, (E)-2-(2,6-bis(trifluoromethyl)benzylidene)hydrazine-1-carboximidamide acetate] | 19.6 | 86 | –
18 | Clc1ccc(Cl)c(/C=N/NC2=NCCCN2)c1Cl [JM3-155-2, (E)-2-(2-(2,3,6-trichlorobenzylidene)hydrazinyl)-1,4,5,6-tetrahydropyrimidine hydrochloride] | 31.2 | 135 | –
19 | NC(=S)N/N=C/c1ccc2ccccc2c1 [JM1-129-2, (E)-2-(naphthalen-2-ylmethylene)hydrazine-1-carbothioamide] | 24.1 | 35 | –
20 | Cc1[nH]c(N/N=C/c2c(Cl)cccc2Cl)nc(=O)c1C [JM3-191-2, (E)-2-(2-(2,6-dichlorobenzylidene)hydrazinyl)-5,6-dimethylpyrimidin-4(1H)-one] | 40.6 | 175 | –
21 | CN(C)C(=N)N/N=C/c1c(Cl)cccc1Cl [JM2-289-2, (E)-2-(2,6-dichlorobenzylidene)-N,N-dimethylhydrazine-1-carboximidamide hydroiodide] | 33.8 | 128 | –
22 | CC(C)c1cccc(Cl)c1/C=N/NC(=N)N [JM3-89-2, (E)-2-(2-chloro-6-isopropylbenzylidene)hydrazine-1-carboximidamide acetate] | 22 | 96 | –

Row | SMILES | viability at 2.5 µM [1] [%] | viability at 2.5 µM [2] [%] | also measured
23 | CC/C(=N\NC(=N)N)c1cccc(Cl)c1 [JM1-257-2, (E)-2-(1-(3-chlorophenyl)propylidene)hydrazine-1-carboximidamide] | 34.6 | 50 | –
24 | Clc1cccc(Cl)c1Cc1ncc[nH]1 [JM3-131-2, 2-(2,6-dichlorobenzyl)-1H-imidazole] | 22.8 | 100 | –
25 | FC(F)(F)c1cccc(Cl)c1/C=N/NC1=NCCN1 [JM2-131-2, (E)-2-(2-(2-chloro-6-(trifluoromethyl)benzylidene)hydrazinyl)-4,5-dihydro-1H-imidazole hydrochloride] | 62.6 | 198 | –
26 | Clc1ccccc1/C=N/NC1=NCCN1 [JM2-113-2, (E)-2-(2-(2-chlorobenzylidene)hydrazinyl)-4,5-dihydro-1H-imidazole hydrochloride] | 35.2 | 111 | –
27 | N=C(N)N/N=C/c1c(Cl)ccnc1Cl [JM3-29-2, (E)-2-((2,4-dichloropyridin-3-yl)methylene)hydrazine-1-carboximidamide acetate] | 32.2 | 122 | –
28 | CC(C)c1cccc(C(C)C)c1/C=N/NC(=N)N [JM3-99-2, (E)-2-(2,6-diisopropylbenzylidene)hydrazine-1-carboximidamide] | 20.9 | 91 | –
29 | Brc1ccccc1/C=N/NC1=NCCN1 [JM2-191-2, (E)-2-(2-(2-bromobenzylidene)hydrazinyl)-4,5-dihydro-1H-imidazole hydrochloride] | 39.5 | 125 | –
30 | Cc1cc(=O)nc(N/N=C/c2ccc(Cl)c(Cl)c2)[nH]1 [JM3-211-2, (E)-2-(2-(3,4-dichlorobenzylidene)hydrazinyl)-6-methylpyrimidin-4(1H)-one] | 20.2 | 105 | –
31 | CNC(=N)N/N=C/c1c(Cl)cccc1Cl [JM2-171-2, (E)-2-(2,6-dichlorobenzylidene)-N-methylhydrazine-1-carboximidamide hydroiodide] | 67 | 212 | –
32 | N=C(N)N/N=C/c1c(Cl)cc(-c2ccccc2)cc1Cl [JM3-67-2, (E)-2-((3,5-dichloro-[1,1′-biphenyl]-4-yl)methylene)hydrazine-1-carboximidamide] | 23.3 | 102 | –
33 | NC(=O)N/N=C/c1ccccc1I [JM3-225-2, (E)-2-(2-iodobenzylidene)hydrazine-1-carboxamide hydrochloride] | 22.8 | 96 | –
34 | Cc1[nH]c(N/N=C/c2cccc(Cl)c2Cl)nc(=O)c1C [JM3-195-2, (E)-2-(2-(2,3-dichlorobenzylidene)hydrazinyl)-5,6-dimethylpyrimidin-4(1H)-one] | 29.7 | 128 | –
35 | Clc1cccc(Cl)c1CC1=NCCCN1 [JM2-271-2, 2-(2,6-dichlorobenzyl)-1,4,5,6-tetrahydropyrimidine] | 32.3 | 123 | –
36 | Clc1cccc(CC2=NCCCN2)c1Cl [JM3-181-2, 2-(2,3-dichlorobenzyl)-1,4,5,6-tetrahydropyrimidine] | 19.6 | 102 | –
37 | Clc1cccc(Cl)c1CC1=NCCN1 [JM2-87-2, 2-(2,6-dichlorobenzyl)-4,5-dihydro-1H-imidazole] | 54.3 | 124 | –
38 | Cc1[nH]c(N/N=C/c2ccc(Cl)c(Cl)c2)nc(=O)c1C [JM3-209-2, (E)-2-(2-(3,4-dichlorobenzylidene)hydrazinyl)-5,6-dimethylpyrimidin-4(1H)-one] | 21.6 | 113 | –
39 | N=C(N)N/N=C/c1c(F)cccc1F [JM1-191-2, (E)-2-(2,6-difluorobenzylidene)hydrazine-1-carboximidamide acetate] | 45.7 | 66 | –
40 | N=C(N)N/N=C/c1ccccc1O [JM3-17-2, (E)-2-(2-hydroxybenzylidene)hydrazine-1-carboximidamide acetate] | 28.7 | 109 | –
41 | N=C(N)N/N=C/c1cc(F)ccc1Cl [JM1-185-2, (E)-2-(2-chloro-5-fluorobenzylidene)hydrazine-1-carboximidamide acetate] | 54.4 | 79 | –
42 | N=C(N)N/N=C/c1ccc(Br)cc1Cl [JM3-57-2, (E)-2-(4-bromo-2-chlorobenzylidene)hydrazine-1-carboximidamide acetate] | 28.1 | 107 | –
43 | N=C(N)NNCc1c(Cl)cccc1Cl [JM3-227-2, 2-(2,6-dichlorobenzyl)hydrazine-1-carboximidamide] | – | – | % Cell Survival Cmpd(2.5 μM) + Tuni: 27.92%
